This note sets out measurements from PubChem BioAssay AID743395 (Broad Institute, 2014).

The test has as its system HepG2 viability, CellTiter-Glo ATP luminescence, 72 h. The experiment in a line: viability loss in human hepatoma cells – cell-based, CellTiter-Glo luminescence, cherry-pick, set 2, cytotoxicity control, dose response (AID 743395). (Cellular ATP, detected with luciferase, serves as a proxy for viable cell number.)

For the compound `COc1ccc(N2CCc3c(C)nc4c(OC)cc(OC)cc4c32)cc1`, the AC35 was 9.38 µM.
With `CCN(c1cccc(C)c1)S(=O)(=O)c1ccc(-c2cc(C)no2)s1`, the AC35 is 8.73 µM.
Under `Cn1c(C(=O)c2ccccc2[N+](=O)[O-])nc2ccccc21` stands 14.3 µM; under `O=C(NCCOc1ccccc1)c1cc([N+](=O)[O-])ccc1N1CCOCC1`, 6.79 µM; under `COc1cc(OC)cc(C(=O)OCC(=O)NC(c2ccccc2)c2ccccc2)c1`, 16.2 µM.
Turning to `C=CCCC(=O)Nc1nc(C)c(-c2csc(Nc3cc(OC)ccc3OC)n2)s1`, the AC35 was 5.68 µM.
For `O=c1ccc2c(-c3ccccc3)c3ccc(O)cc3oc-2c1`, the AC35 was 17.8 µM.
To `Cc1ccc(-c2ccc3c(c2)O[C@H](CN(C)Cc2ccccn2)[C@@H](C)CN([C@@H](C)CO)S3(=O)=O)cc1` belongs 16.8 µM; to `Cc1cnc(NC(=O)c2ccc3c(c2)OCCO3)s1`, 4.22 µM; to `O=C(NCCN1C(=O)S/C(=C\c2ccc(OC(F)F)cc2)C1=O)c1cnccn1`, 10.5 µM.
To `Cn1nccc1C(=O)N/N=C/c1c(O)ccc2ccccc12` belongs 4.13 µM; to `Cc1cccc(N2CCN(C(=O)c3ccc4[nH]c(C)c(C)c4c3)CC2)c1C`, 2.5 µM; to `CC(=NNC(=S)N1CCCCC1)c1cccc(C)n1`, 15.6 µM.
Under `COC1C(C)OC(OC2CC(C)(O)Cc3cc4c(c(O)c32)C(=O)c2c(O)cc3c(c2C4=O)OC2OC3(C)C(O)C(N(C)C)C2O)C(OC)C1(C)OC` (stereo unspecified) stands 5.03 µM; under `Cc1ccc(/C=N/NC(=O)c2c(-c3ccccc3)noc2C)c(O)c1`, 18.4 µM.
Turning to `Cc1ncc(CO)c(/C=N/Nc2ccc(C(F)(F)F)cn2)c1O`, the AC35 is 4.63 µM.
Under `O=C(N=Nc1c(O)[nH]c2ccc(Br)cc12)c1ccccc1-n1cccc1` stands 13.1 µM.
In the case of `CCN(CC)CCCNc1nc2ccccc2c2nc(-c3ccncc3)nn12`, the AC35 was 7.23 µM.
To `O=S(=O)(Cc1ccc(Cl)cc1Cl)c1ccc(Cl)cc1` belongs 11.3 µM; to `COc1ccc([C@H]2CC(=O)C=C(c3ccc(OC)cc3OC)C2)cc1`, 7.54 µM.
Under `Cc1ccc(-c2ccc3c(c2)O[C@H](CN(C)Cc2ccccn2)[C@@H](C)CN([C@H](C)CO)S3(=O)=O)cc1` stands 13.8 µM.
For the compound `Nc1c2ccccc2nc2ccccc12`, the AC35 is 2.63 µM.
For `COc1cc(OC)c2c(-c3cccc(-c4sccc4C(C)=O)c3)cc(=O)oc2c1`, the AC35 was 7.12 µM.
As for `CC1(C(=O)NCc2cccs2)Cc2c(-c3ccc4c(c3)OCO4)ccnc2O1` (stereo unspecified), the AC35 was 16.4 µM.
Consider `COc1ccc2c3c([nH]c2c1)[C@H](CO)N(C(=O)C1CCOCC1)CC31CCN(Cc2cccc(F)c2)CC1`, for which the AC35 was 2.74 µM.
For `Cc1ccc(-c2ccc3c(c2)O[C@@H](CN(C)Cc2ccccn2)[C@H](C)CN([C@H](C)CO)S3(=O)=O)cc1`, the AC35 is 15.3 µM.
To `CCN(CC)CCn1nc2c3c(cccc3c1=O)-c1ccccc1-2` belongs 2.82 µM; to `N#Cc1c(-c2ccc(F)cc2)c(-c2ccc(F)cc2)nn(CCO)c1=O`, 4.03 µM.
For `Cc1cc(N/N=C/c2ccccc2O)c2ccccc2n1`, the AC35 is 19.7 µM.
For `CO/N=C\CC(=O)Nc1ccc(Cl)cc1Cl`, the AC35 was 16.1 µM.
To `CC(=O)NC(c1ccc(Cl)cc1)c1ccc2cccnc2c1O` (stereo unspecified) belongs 2.14 µM; to `O=C(c1ccc(Br)cc1)c1cc([N+](=O)[O-])ccc1N1CCOCC1`, 3.19 µM; to `Nc1c(C(=O)c2ccco2)oc2ccccc12`, 15.8 µM.
To `O=C1CN(S(=O)(=O)Cc2ccccc2)C[C@@H]2[C@@H](c3ccc(C#Cc4cccc(F)c4)cc3)[C@@H](CO)N12` belongs 7.38 µM; to `CCN(CC)C(=O)c1oc2ccc(S(=O)(=O)N3CC(C)CC(C)C3)cc2c1C` (stereo unspecified), 12.9 µM; to `COc1ccc(OC)c(C(=O)Cn2nnc(-c3ccc(N4CCOCC4)cc3)n2)c1`, 16.6 µM.
As for `COc1ccc2c3c([nH]c2c1)[C@H](CO)N(S(C)(=O)=O)CC31CCN(Cc2cccc(F)c2)CC1`, the AC35 is 5.92 µM.
Under `COC(=O)CSC1=C(C#N)C(c2ccc(C)o2)CC(=O)N1` (stereo unspecified) stands 19.1 µM; under `COc1ccc(OC)c(/C(C)=N\NC(=O)c2cc3cc(Cl)ccc3n2C)c1`, 14 µM.
To `Cc1cc(NCc2ccccn2)n2ncc(-c3ccccc3)c2n1` belongs 7.75 µM; to `CCOC(=O)c1ccc(-c2c(-c3cc(OC)c(OC)c(OC)c3)noc2C)cc1F`, 5.6 µM; to `Oc1cccc(/C=N/Nc2ccc(Cl)nn2)c1O`, 7.7 µM.
In the case of `Oc1ccc(/C=N/Nc2nc(-c3ccccc3F)nc3ccccc23)c(O)c1`, the AC35 was 15.6 µM.
With `CCOc1ccc(NC(=O)c2cc(OC)nc3ccccc23)cc1`, the AC35 was 14.3 µM.
Under `CCOC(=O)c1sc(Nc2nc(C)cc(C)n2)nc1C` stands 11.3 µM.
As to `COc1cc2c(cc1OC)C(C)N(C(=O)Nc1cc(C)cc(C)c1)CC2` (stereo unspecified), the AC35 is 7.81 µM.
Under `COc1cc(C#Cc2ccc3cc(CCCO)oc(=O)c3c2)cc(OC)c1` stands 6.25 µM; under `Oc1c(Cl)cc(CN2CCOCC2)c2cccnc12`, 7.67 µM.
Regarding `CC(C)C[C@H](NC(=O)c1nc[nH]c1C(=O)N1CCN(C(=O)OC(C)(C)C)CC1)C(=O)OC(C)(C)C`, the AC35 is 14.6 µM.
Consider `COc1ccc(NC(=O)Nc2ccc3c(c2)C(=O)N([C@H](C)CO)C[C@@H](C)[C@H](CN(C)Cc2ccc(C(F)(F)F)cc2)OCCCC[C@H](C)O3)cc1`, for which the AC35 is 13.9 µM.
For `Cc1ccc(CNC(=O)c2ccc3c(=O)c(O)c(-c4ccc(C)cc4)[nH]c3c2)cc1`, the AC35 is 1.9 µM.
Consider `O=C1C=CCC(/C=C/c2ccccc2)O1` (stereo unspecified), for which the AC35 is 19 µM.
Under `O=C1/C(=C\c2ccc(O)cc2)SC(=S)N1Cc1ccccc1` stands 17.3 µM; under `Cc1ccc(-c2nn(-c3ccccc3)cc2C(=O)N2CCN(c3ccccn3)CC2)cc1`, 12.3 µM; under `CC(=O)c1cccc(Nc2c3c(nc4ccccc24)CCC3)c1`, 17.9 µM.
For `COc1ccc(S(=O)(=O)Nc2ccc3c(c2)C(=O)N([C@H](C)CO)C[C@@H](C)[C@@H](CN(C)Cc2ccc(Cl)c(Cl)c2)O3)cc1`, the AC35 was 14.1 µM.
With `CN1c2ccc(-c3ccc(F)cc3)cc2[C@H]2[C@H](CCN2S(=O)(=O)c2cccc(F)c2)[C@@H]1CO`, the AC35 was 17.3 µM.
Under `O=[N+]([O-])c1ccc(N=Nc2c(Cl)cc(O)cc2Cl)cc1` stands 4.24 µM; under `COc1ccccc1CNC(=O)Nc1nc(C(N)Cc2ccc(Cl)cc2)cs1` (stereo unspecified), 9.79 µM; under `CC1CCN(C(=O)C2COc3ccccc3O2)CC1` (stereo unspecified), 21.8 µM.
To `COc1cccc(S(=O)(=O)N2C[C@@H]3N[C@H](C2)C3c2ccc(-c3cccc(C)c3)cc2)c1` (stereo partly specified) belongs 12 µM; to `O=C(c1cc(-c2ccncc2)nc2c(Cl)cccc12)N1CCN(c2ccccc2F)CC1`, 8.73 µM.
To `Cc1ccc(/C=N/NC(=O)c2ccc3ccccc3c2)s1` belongs 9.16 µM; to `CCc1ccc(-c2nc(C(N)=O)c3[nH]c(=O)n(-c4ccccc4OC)c3n2)cc1`, 9.05 µM; to `COc1cc(OC)cc(-c2nc3ccccc3c(=O)n2OC(=O)c2ccc(C)c(C)c2)c1`, 21.5 µM.
As to `COc1cc(-c2nccc3cc4c(cc23)OCO4)cc(OC)c1OC`, the AC35 was 5.6 µM.
Under `COc1ccc(COc2cc(-c3cccc(OC)c3)nc3ccc(NC(=O)c4ccc(OC)cc4)cc23)cc1` stands 7.56 µM.
For the compound `O=C(N/N=C/c1c(O)ccc2ccccc12)C(=O)N1CCCC1`, the AC35 is 15.7 µM.
`O=C(Nc1cccc(F)c1)N1CCCCN2[C@@H](CO)[C@H](c3ccc(C#Cc4ccccc4)cc3)[C@@H]2C1`: the AC35 is 9.45 µM.
Under `Cc1ccc(C(=O)N/N=C/c2cc(Br)ccc2O)cn1` stands 17.8 µM; under `CC(C)Nc1ccc(Nc2ccnc3cc4ccccc4cc23)cc1`, 2.44 µM; under `O=C1CN(S(=O)(=O)Cc2ccccc2)C[C@@H]2[C@@H](c3ccc(C#Cc4cccc(F)c4)cc3)[C@H](CO)N12`, 14.1 µM.
Take `COc1cc(/C=C(\C#N)c2nc3ccccc3[nH]2)cc(OC)c1O`: the AC35 is 17.2 µM.
Turning to `CO[C@@]12[C@@H]3N[C@@H]3CN1C1=C(C(=O)C(N)=C(C)C1=O)[C@@H]2COC(N)=O`, the AC35 is 9.61 µM.
Under `Cn1cccc1/C=C1\SC(=Nc2ccccc2)NC1=O` stands 4.22 µM.
To `COc1ccc(S(=O)(=O)N2CC[C@@H]3[C@@H](CO)Nc4ccc(-c5cccc(C#N)c5)cc4[C@@H]32)cc1` belongs 14 µM; to `CC(=O)NC(c1ccc(C(C)C)cc1)c1ccc2cccnc2c1O` (stereo unspecified), 0.861 µM.
To `CCCNC(=O)c1ccc2c(=O)c(O)c(-c3cccc(Br)c3)[nH]c2c1` belongs 4.65 µM; to `CN1c2ccc(-c3ccc(F)cc3)cc2[C@H]2[C@H](CCN2S(=O)(=O)c2ccc(F)cc2)[C@@H]1CO`, 20.9 µM.
For the compound `Cc1ccc(-c2csc3ncn(CC#N)c(=O)c23)cc1C`, the AC35 was 17.9 µM.
Under `NS(=O)(=O)c1ccc(S(=O)(=O)N(CCc2ccccc2)Cc2ccccn2)cc1` stands 21.5 µM; under `CC(=NNC(=O)c1ccncc1)c1ccc2ccccc2c1O`, 2.59 µM; under `CC(C)(C)c1ccc(/C=C/C(=O)c2ccc(NC3=NCCCS3)cc2)cc1`, 18.2 µM.
Under `C#Cc1cc(N2CCN(C(=O)c3ccoc3)CC2)n2nc(-c3cccc(Cl)c3)cc2n1` stands 7.94 µM.
Under `C[C@@H]1CN([C@@H](C)CO)C(=O)c2cc(NS(=O)(=O)c3ccc(Cl)cc3)ccc2O[C@@H]1CN(C)Cc1ccc(C(F)(F)F)cc1` stands 16.4 µM; under `COc1ccc(CCNc2ncnc3c2oc2ccccc23)cc1OC`, 11.3 µM.
On to `O=C(c1cccc(F)c1)N1CC(=O)N2[C@@H](CO)[C@@H](c3ccc(C#Cc4ccc(F)cc4)cc3)[C@@H]2C1`, for which the AC35 was 17.9 µM.
To `COc1cc(C2CC(=O)N(c3ccc(C)cc3)C(=O)C2)cc(OC)c1OC` belongs 10.7 µM.
Turning to `O=C1CC(c2ccccc2)CC2=C1C=Nc1ccccc1N2` (stereo unspecified), the AC35 was 18.3 µM.
Turning to `COc1ccc(-c2ccc3c(c2)[C@H]2[C@H](CCN2S(=O)(=O)c2ccc(OC)cc2)[C@@H](CO)N3)cc1`, the AC35 was 14.5 µM.
To `O=[N+]([O-])c1ccc(/C=C/C2=NN(c3ccccc3)C(c3ccco3)C2)o1` (stereo unspecified) belongs 15.1 µM.
